The values below come from ChEMBL document CHEMBL5550132, “Structure-activity relationship in NOD2 agonistic muramyl dipeptides” (Eur J Med Chem, 2024).

The target in assay [1] is T1, Nuclear factor NF-kappa-B complex (Homo sapiens) (UniProt Q00653+P19838+Q04206). Nature of the assay: Activation of NF-KappaB (unknown origin) expressed in HEK293T cells assessed as fold change at 1 uM incubated for 12 hrs by Renilla luciferase assay. Type of assay: cell-based. Conditions: filed as activator.
Assay [2] deals with T1, Nuclear factor NF-kappa-B complex (Homo sapiens). Nature of the assay: Activation of NF-KappaB (unknown origin) expressed in HEK293T cells assessed as fold change at 10 nM incubated for 12 hrs by Renilla luciferase assay. The note with it: filed as activator. Type of assay: cell-based.
The target is the same in assay [3]. Put plainly: Activation of NF-KappaB (unknown origin) expressed in HEK293T cells assessed as fold change at 100 nM incubated for 12 hrs by Renilla luciferase assay. The note with it: filed as activator. Type of assay: cell-based.
For assay [4] the target is unchanged. Put plainly: Activation of NF-KappaB (unknown origin) expressed in HEK293T cells assessed as fold change at 1000 nM incubated for 12 hrs by Renilla luciferase assay. Type of assay: cell-based. Conditions: filed as activator.
Assay [5] shares this target. Put plainly: Activation of NF-KappaB (unknown origin) expressed in HEK293T cells assessed as fold change at 10 ng incubated for 12 hrs by Renilla luciferase assay. Conditions: filed as activator. Type of assay: cell-based.
The species entered for assay [6] is Cavia porcellus. Put plainly: Induction of delayed type hypersensitivity in ABA-BSA immunized Hartley Guinea pigs assessed as reduction in skin lesions at 100 ug measured for 24 hrs. Type of assay: functional. The note with it: dose 100 µg.

T1 sequence (P19838 whole entry, looked up): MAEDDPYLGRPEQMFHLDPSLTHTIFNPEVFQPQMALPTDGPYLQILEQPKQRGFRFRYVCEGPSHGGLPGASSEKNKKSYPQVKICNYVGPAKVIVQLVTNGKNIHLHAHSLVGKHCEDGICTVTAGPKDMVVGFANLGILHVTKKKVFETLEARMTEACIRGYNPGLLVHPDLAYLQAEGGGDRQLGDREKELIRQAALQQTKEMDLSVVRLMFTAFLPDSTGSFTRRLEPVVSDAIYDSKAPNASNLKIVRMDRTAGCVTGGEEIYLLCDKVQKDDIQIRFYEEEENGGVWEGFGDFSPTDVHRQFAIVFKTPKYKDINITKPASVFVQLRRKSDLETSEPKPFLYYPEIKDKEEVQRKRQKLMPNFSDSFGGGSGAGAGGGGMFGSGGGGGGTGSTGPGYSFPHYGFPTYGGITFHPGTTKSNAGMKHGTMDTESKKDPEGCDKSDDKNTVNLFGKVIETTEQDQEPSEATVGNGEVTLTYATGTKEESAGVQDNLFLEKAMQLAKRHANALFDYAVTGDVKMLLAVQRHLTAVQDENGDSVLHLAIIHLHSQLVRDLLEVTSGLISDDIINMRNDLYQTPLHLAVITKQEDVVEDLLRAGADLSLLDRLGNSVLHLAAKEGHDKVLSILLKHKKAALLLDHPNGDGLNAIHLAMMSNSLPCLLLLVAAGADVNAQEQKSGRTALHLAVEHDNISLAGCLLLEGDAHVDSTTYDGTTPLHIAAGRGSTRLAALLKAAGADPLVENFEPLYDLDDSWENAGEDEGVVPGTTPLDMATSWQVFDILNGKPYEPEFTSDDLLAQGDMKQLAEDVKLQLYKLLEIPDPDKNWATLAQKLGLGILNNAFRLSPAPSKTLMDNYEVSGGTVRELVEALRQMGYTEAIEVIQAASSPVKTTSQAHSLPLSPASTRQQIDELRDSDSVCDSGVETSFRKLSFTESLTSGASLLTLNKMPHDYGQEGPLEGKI
T1 sequence (Q00653 whole entry, looked up): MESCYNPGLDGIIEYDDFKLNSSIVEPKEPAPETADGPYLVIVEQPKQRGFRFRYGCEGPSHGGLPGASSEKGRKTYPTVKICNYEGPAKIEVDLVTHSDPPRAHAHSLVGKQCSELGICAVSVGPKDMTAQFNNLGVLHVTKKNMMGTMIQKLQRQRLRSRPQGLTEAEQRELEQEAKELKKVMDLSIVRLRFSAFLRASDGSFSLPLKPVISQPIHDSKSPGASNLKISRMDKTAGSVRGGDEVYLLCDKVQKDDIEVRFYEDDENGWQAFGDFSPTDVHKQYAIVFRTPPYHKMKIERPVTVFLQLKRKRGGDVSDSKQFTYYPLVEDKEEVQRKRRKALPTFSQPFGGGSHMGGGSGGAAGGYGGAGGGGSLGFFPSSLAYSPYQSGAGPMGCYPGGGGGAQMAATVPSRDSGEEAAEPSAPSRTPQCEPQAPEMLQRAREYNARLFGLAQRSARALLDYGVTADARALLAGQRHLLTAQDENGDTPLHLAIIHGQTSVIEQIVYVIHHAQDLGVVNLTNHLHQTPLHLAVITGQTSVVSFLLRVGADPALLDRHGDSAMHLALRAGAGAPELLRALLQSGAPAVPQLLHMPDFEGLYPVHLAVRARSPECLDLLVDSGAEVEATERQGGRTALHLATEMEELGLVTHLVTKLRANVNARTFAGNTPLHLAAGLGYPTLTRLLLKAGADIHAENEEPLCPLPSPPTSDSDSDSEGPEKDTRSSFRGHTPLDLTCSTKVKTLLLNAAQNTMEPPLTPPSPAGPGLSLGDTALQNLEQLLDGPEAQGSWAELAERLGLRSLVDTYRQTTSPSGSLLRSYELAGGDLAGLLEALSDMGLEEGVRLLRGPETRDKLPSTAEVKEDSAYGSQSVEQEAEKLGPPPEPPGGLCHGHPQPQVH
T1 sequence (Q04206 whole entry, looked up): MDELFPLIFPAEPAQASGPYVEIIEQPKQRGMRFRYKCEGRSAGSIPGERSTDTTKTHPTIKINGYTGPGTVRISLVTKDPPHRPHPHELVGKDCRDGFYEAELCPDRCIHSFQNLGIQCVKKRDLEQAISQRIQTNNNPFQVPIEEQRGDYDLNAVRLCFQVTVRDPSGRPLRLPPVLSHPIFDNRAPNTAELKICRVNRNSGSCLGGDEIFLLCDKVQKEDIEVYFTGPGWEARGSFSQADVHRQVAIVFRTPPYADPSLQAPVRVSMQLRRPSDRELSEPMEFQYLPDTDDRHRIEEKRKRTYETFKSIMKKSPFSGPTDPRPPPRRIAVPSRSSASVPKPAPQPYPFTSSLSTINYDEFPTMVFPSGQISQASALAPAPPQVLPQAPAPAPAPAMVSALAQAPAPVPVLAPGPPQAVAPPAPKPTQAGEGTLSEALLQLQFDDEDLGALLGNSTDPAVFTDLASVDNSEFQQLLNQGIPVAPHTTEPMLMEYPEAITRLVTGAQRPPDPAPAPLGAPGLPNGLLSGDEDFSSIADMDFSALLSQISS

With `C[C@H](NC(=O)[C@@H](C)O[C@@H]1[C@@H](N)[C@H](O)O[C@H](CO)[C@H]1O)C(=O)N[C@H](CCC(=O)O)C(N)=O`, in assay [1], the fold change (FC) turned out to be 4.6.
For `CO[C@@H]1O[C@H](CO)[C@@H](O)[C@H](O[C@H](C)C(=O)N[C@@H](C)C(=O)N[C@H](CCC(=O)O)C(N)=O)[C@H]1NC(=O)Cc1ccccc1`, the fold change (FC) in assay [1] was determined as 4.45.
Turning to `C[C@H](NC(=O)[C@@H](C)O[C@H]1[C@H](O)[C@@H](CO)O[C@@H](O)[C@@H]1NC(=O)Cc1ccccc1)C(=O)N[C@H](CCC(=O)O)C(N)=O`, the fold change (FC) in assay [1] is 3.85.
For the compound `CC(=O)N[C@@H]1[C@@H](O[C@H](C)C(=O)N[C@@H](C)C(=O)N[C@H](CC(=O)O)C(N)=O)[C@H](O)[C@@H](CO)O[C@H]1O`, the values for the fold change (FC) in assay [2], in assay [3] and in assay [4] were 1.85, 1.87 and 1.9, respectively.
As for `CO[C@@H]1O[C@H](CO)[C@@H](O)[C@H](O[C@H](C)C(=O)N[C@@H](C)C(=O)N[C@H](CCC(=O)O)C(N)=O)[C@H]1NC(=O)Cc1c(F)c(F)c(F)c(F)c1F`, the fold change (FC) in assay [1] is 5.
Take `CCCCCCCCCCCCCCCCCCCCOC(=O)[C@@H](CCC(=O)O)NC(=O)[C@H](C)NC(=O)[C@@H](C)O[C@H]1[C@H](O)[C@@H](CO)O[C@@H](O)[C@@H]1NC(C)=O`: the fold change (FC) in assay [2] came to 5.7; in assay [3] it was 7.35; in assay [4], 5.7; in assay [5] it was 5.7.
For the compound `C[C@H](NC(=O)[C@@H](C)O[C@H]1[C@H](O)[C@@H](CO)O[C@@H](O)[C@@H]1NC(=O)CO)C(=O)N[C@H](CCC(=O)O)C(N)=O`, the fold change (FC) in assay [1] was determined as 4.5.
As to `CCOC(=O)CC[C@@H](NC(=O)[C@H](C)NC(=O)[C@@H](C)O[C@H]1[C@H](O)[C@@H](CO)O[C@@H](O)[C@@H]1NC(C)=O)C(=O)OCC`, the fold change (FC) is 2.3 in assay [2], 4.7 in assay [3], 6.5 in assay [4] and 2.3 in assay [5].
`CC(=O)N[C@@H]1[C@@H](O[C@H](C)C(=O)N[C@@H](C)C(=O)N[C@H](CCC(=O)O)C(=O)NCC(F)(F)C(F)(F)F)[C@H](O)[C@@H](CO)O[C@H]1O`: the fold change (FC) in assay [2] amounted to 0.8; in assay [3], 0.9; in assay [4], 2.4; in assay [5], 0.8.
`CC(=O)N[C@@H]1[C@@H](O[C@H](C)C(=O)N[C@@H](C)C(=O)N[C@H](CCC(=O)O)C(=O)OC2CCCCC2)[C@H](O)[C@@H](CO)O[C@H]1O`: the fold change (FC) in assay [2] stood at 4.6; in assay [3] it was 6.8; in assay [4], 6.55; in assay [5] it was 4.6.
Regarding `CO[C@@H]1O[C@H](CO)[C@@H](O)[C@H](O[C@H](C)C(=O)N[C@@H](C)C(=O)N[C@H](CCC(=O)O)C(N)=O)[C@H]1N`, the fold change (FC) in assay [1] stood at 6.2.
Regarding `CCCCCCCCCCCCCCCCCC(=O)NC[C@H]1O[C@@H](O)[C@H](N)[C@@H](O[C@H](C)C(=O)N[C@H](C(=O)N[C@H](CCC(=O)O)C(N)=O)C(C)C)[C@@H]1O`, the Activity in assay [6] was 4.3 mm.
On to `CC(=O)N[C@@H]1[C@@H](O[C@H](C)C(=O)N[C@@H](C)C(=O)N[C@H](CCC(=O)O)C(=O)O)[C@H](O)[C@@H](CO)O[C@H]1O`, for which the fold change (FC) in assay [2] came to 2.5; in assay [3], 4.5; in assay [4], 6.1; in assay [5], 2.5.
With `CC(=O)N[C@@H]1[C@@H](O[C@H](C)C(=O)N[C@@H](C)C(=O)N[C@H](CCC(=O)O)C(=O)OCCCl)[C@H](O)[C@@H](CO)O[C@H]1O`, the fold change (FC) in assay [2] was 4.2; in assay [3], 6.6; in assay [4], 6.55; in assay [5], 4.2.
In the case of `COCC(=O)N[C@H]1[C@H](OC)O[C@H](CO)[C@@H](O)[C@@H]1O[C@H](C)C(=O)N[C@@H](C)C(=O)N[C@H](CCC(=O)O)C(N)=O`, in assay [1], the fold change (FC) turned out to be 5.55.
Take `CCCCCCCCOC(=O)[C@@H](CCC(=O)O)NC(=O)[C@H](C)NC(=O)[C@@H](C)O[C@H]1[C@H](O)[C@@H](CO)O[C@@H](O)[C@@H]1NC(C)=O`: the fold change (FC) was determined as 6.1 in assay [2], 6.9 in assay [3], 6.3 in assay [4] and 6.1 in assay [5].
As for `C[C@H](NC(=O)CO[C@H]1[C@H](O)[C@@H](CO)O[C@@H](O)[C@@H]1NC(=O)CO)C(=O)N[C@H](CCC(=O)O)C(N)=O`, in assay [1], the fold change (FC) is 5.8.
In the case of `CCCCCCNC(=O)[C@@H](CCC(=O)O)NC(=O)[C@H](C)NC(=O)[C@@H](C)O[C@H]1[C@H](O)[C@@H](CO)O[C@@H](O)[C@@H]1NC(C)=O`, the fold change (FC) is 1.1 in assay [2], 1.15 in assay [3], 2.8 in assay [4] and 1.1 in assay [5].
For `CCCCCCCCCCCO[C@@H]1O[C@H](CO)[C@@H](O)[C@H](O[C@H](C)C(=O)N[C@@H](C)C(=O)N[C@H](CCC(=O)O)C(N)=O)[C@H]1NC(=O)CO`, the fold change (FC) in assay [1] came out at 4.85.
For the compound `CCCCNC(=O)[C@@H](CCC(=O)O)NC(=O)[C@H](C)NC(=O)[C@@H](C)O[C@H]1[C@H](O)[C@@H](CO)O[C@@H](O)[C@@H]1NC(C)=O`, the fold change (FC) amounted to 1.1 in assay [2], 1.1 in assay [3], 2.1 in assay [4] and 1.1 in assay [5].
Turning to `CC(=O)N[C@@H]1[C@@H](O[C@H](C)C(=O)N[C@@H](C)C(=O)N[C@H](CCC(=O)O)C(=O)NC2CCCCC2)[C@H](O)[C@@H](CO)O[C@H]1O`, the fold change (FC) was found to be 1 in assay [2], 1 in assay [3], 2.9 in assay [4] and 1 in assay [5].
`CCCCCCCCCCCCCCCCOC(=O)[C@@H](CCC(=O)O)NC(=O)[C@H](C)NC(=O)[C@@H](C)O[C@H]1[C@H](O)[C@@H](CO)O[C@@H](O)[C@@H]1NC(C)=O`: the fold change (FC) turned out to be 5.3 in assay [2], 7 in assay [3], 4.9 in assay [4] and 5.3 in assay [5].
For `C[C@H](NC(=O)[C@@H](C)O[C@H]1[C@H](O)[C@@H](CO)O[C@@H](OCCCCN)[C@@H]1NC(=O)CO)C(=O)N[C@H](CCC(=O)O)C(N)=O`, in assay [1], the fold change (FC) amounted to 5.
In the case of `CCCCCCCCCCCCOC(=O)[C@@H](CCC(=O)O)NC(=O)[C@H](C)NC(=O)[C@@H](C)O[C@H]1[C@H](O)[C@@H](CO)O[C@@H](O)[C@@H]1NC(C)=O`, the fold change (FC) in assay [2] worked out at 7.5; in assay [3], 6.5; in assay [4], 6.3; in assay [5], 7.5.
Consider `CC(=O)N[C@@H]1[C@@H](O[C@H](C)C(=O)N[C@@H](C)C(=O)N[C@H](CCC(=O)O)C(=O)OCCc2ccccc2)[C@H](O)[C@@H](CO)O[C@H]1O`, for which the fold change (FC) in assay [2] is 5.6; in assay [3], 7; in assay [4] it was 6; in assay [5], 5.6.
Consider `C[C@H](NC(=O)[C@@H](C)O[C@H]1[C@H](O)[C@@H](CO)O[C@@H](O)[C@@H]1NC(=O)CN)C(=O)N[C@H](CCC(=O)O)C(N)=O`, for which, in assay [1], the fold change (FC) was found to be 4.5.
In the case of `COCC(=O)N[C@@H]1[C@@H](O[C@H](C)C(=O)N[C@@H](C)C(=O)N[C@H](CCC(=O)O)C(N)=O)[C@H](O)[C@@H](CO)O[C@H]1O`, in assay [1], the fold change (FC) turned out to be 4.4.
Take `CCCCCO[C@@H]1O[C@H](CO)[C@@H](O)[C@H](O[C@H](C)C(=O)N[C@@H](C)C(=O)N[C@H](CCC(=O)O)C(N)=O)[C@H]1NC(=O)CO`: the fold change (FC) in assay [1] came out at 4.5.
As for `C[C@H](NC(=O)[C@@H](C)O[C@H]1[C@H](O)[C@@H](CO)O[C@@H](O)[C@@H]1NC(=O)Cc1c(F)c(F)c(F)c(F)c1F)C(=O)N[C@H](CCC(=O)O)C(N)=O`, the fold change (FC) in assay [1] was 5.4.
For `CCOC(=O)[C@@H](CCC(=O)O)NC(=O)[C@H](C)NC(=O)[C@@H](C)O[C@H]1[C@H](O)[C@@H](CO)O[C@@H](O)[C@@H]1NC(C)=O`, the fold change (FC) was found to be 4 in assay [2], 6.3 in assay [3], 6.6 in assay [4] and 4 in assay [5].
Turning to `CCCCC(=O)N[C@H]1[C@H](OC)O[C@H](CO)[C@@H](O)[C@@H]1O[C@H](C)C(=O)N[C@@H](C)C(=O)N[C@H](CCC(=O)O)C(N)=O`, the fold change (FC) in assay [1] was 5.25.
Turning to `CCCCOC(=O)[C@@H](CCC(=O)O)NC(=O)[C@H](C)NC(=O)[C@@H](C)O[C@H]1[C@H](O)[C@@H](CO)O[C@@H](O)[C@@H]1NC(C)=O`, the fold change (FC) in assay [2] amounted to 4.7; in assay [3] it was 7.1; in assay [4], 7.8; in assay [5], 4.7.
For `CCCCCCCCC(=O)N[C@@H]1[C@@H](O[C@H](C)C(=O)N[C@@H](C)C(=O)N[C@H](CCC(=O)O)C(N)=O)[C@H](O)[C@@H](CO)O[C@H]1O`, the fold change (FC) in assay [1] was 2.4.
Still for that read-out and setting: the result for `CCCCC(=O)N[C@@H]1[C@@H](O[C@H](C)C(=O)N[C@@H](C)C(=O)N[C@H](CCC(=O)O)C(N)=O)[C@H](O)[C@@H](CO)O[C@H]1O` reads 4.5; that for `CO[C@@H]1O[C@H](CO)[C@@H](O)[C@H](O[C@H](C)C(=O)N[C@@H](C)C(=O)N[C@H](CCC(=O)O)C(N)=O)[C@H]1NC(=O)CO`, 5.9; that for `CCCCCCCCC(=O)N[C@H]1[C@H](OC)O[C@H](CO)[C@@H](O)[C@@H]1O[C@H](C)C(=O)N[C@@H](C)C(=O)N[C@H](CCC(=O)O)C(N)=O`, 4.3.
Regarding `CCOC(=O)CC[C@@H](NC(=O)[C@H](C)NC(=O)[C@@H](C)O[C@H]1[C@H](O)[C@@H](CO)O[C@@H](O)[C@@H]1NC(C)=O)C(N)=O`, the fold change (FC) in assay [2] was found to be 1.6; in assay [3], 2.8; in assay [4], 5.6; in assay [5] it was 1.6.
